Counter-ions that a name gives are not always drawn.
These compounds were tested against T1, Human CARM1 (PRMT4) (Homo sapiens, UniProt Q86X55) (assay: CARM1 Biochemical Assay (3H-SAM Flashplate, peptide substrate)). Details: single experiment or average of multiple experiments.
T1 construct: Flag-CARM1-His; made in house; host or cells: HEK 293F cells (BacMam baculovirus)
T1 sequence (Q86X55 1-585 isoform Q86X55-1): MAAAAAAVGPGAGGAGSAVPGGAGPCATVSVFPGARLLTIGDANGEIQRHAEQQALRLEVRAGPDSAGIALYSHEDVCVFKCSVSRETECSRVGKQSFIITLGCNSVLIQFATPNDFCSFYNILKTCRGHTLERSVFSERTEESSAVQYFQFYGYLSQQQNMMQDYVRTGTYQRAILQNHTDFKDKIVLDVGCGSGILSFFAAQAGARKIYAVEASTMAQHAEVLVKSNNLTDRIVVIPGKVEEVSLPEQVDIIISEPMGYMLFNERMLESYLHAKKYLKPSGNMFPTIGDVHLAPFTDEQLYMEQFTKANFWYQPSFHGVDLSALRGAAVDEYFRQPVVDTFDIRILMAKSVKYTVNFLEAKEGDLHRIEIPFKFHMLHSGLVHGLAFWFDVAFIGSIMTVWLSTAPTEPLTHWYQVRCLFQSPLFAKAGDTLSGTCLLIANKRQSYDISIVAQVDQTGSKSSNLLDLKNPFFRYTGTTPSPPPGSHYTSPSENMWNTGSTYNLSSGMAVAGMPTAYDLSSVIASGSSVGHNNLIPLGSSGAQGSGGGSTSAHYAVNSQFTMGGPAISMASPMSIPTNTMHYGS
Description: S-adenosylmethionine (SAM), S-adenosylhomocysteine (SAH), bicine, Tween20, dimethylsulfoxide (DMSO), bovine skin gelatin (BSG), sodium butyrate and Tris(2-carboxyethyl)phosphine hydrochloride solution (TCEP) were purchased from Sigma-Aldrich at the highest level of purity possible. ^3H-SAM was purchase from American Radiolabeled Chemicals with a specific activity of 80 Ci/mmol. 384-well streptavidin Flashplates were purchased from PerkinElmer.
Peptide representative of human histone H3 residues 16-30 was synthesized with an N-terminal linker-affinity tag motif and a C-terminal amide cap by 21st Century Biochemicals. […] The sequence was Biot-Ahx-[…]-amide and contained a monomethylated arginine at position 26 (SEQ ID NO.: 14).
Recombinant baculovirus were generated according to Bac-to-Bac kit instructions (Life Technologies). […] Infections were carried out at 37° C. for 48 hours, harvested by centrifugation, and stored at −80° C. for purification.
Column was washed with 500 mM NaCl in buffer A and Flag-CARM1-His was eluted with 200 ug/ml FLAG peptide in buffer A. Pooled fractions were dialyzed in 20 mM Tris, 150 mM NaCl, 5% glycerol and 1 mM DTT, pH 7.8.
General Procedure for CARM1 Enzyme Assays on Peptide Substrates.
The assays were all performed in a buffer consisting of 20 mM Bicine (pH=7.6), 1 mM TCEP, 0.005% BSG, and 0.002% Tween 20, prepared on the day of use. […] DMSO (1 ul) was added to Columns 11, 12, 23, 24, rows A-H for the maximum signal control and 1 ul of SAH, a known product and inhibitor of CARM1, was added to columns 11, 12, 23, 24, rows I-P for the minimum signal control. A cocktail (40 ul) containing the CARM1 enzyme was added by Multidrop Combi (Thermo-Fisher). The compounds were allowed to incubate with CARM1 for 30 min at room temperature, then a cocktail (10 ul) containing ^3H-SAM and peptide was added to initiate the reaction (final volume=51 ul). […] The assays were stopped by the addition of non-radiolabeled SAM (10 ul) to a final concentration of 300 uM, which dilutes the ^3H-SAM to a level where its incorporation into the peptide substrate is no longer detectable. 50 ul of the reaction in the 384-well polypropylene plate was then transferred to a 384-well Flashplate and the biotinylated peptides were allowed to bind to the streptavidin surface for at least 1 hour before being washed once with 0.1% Tween20 in a Biotek ELx405 plate washer. The plates were then read in a PerkinElmer TopCount plate reader to measure the quantity of ^3H-labeled peptide bound to the Flashplate surface, measured as disintegrations per minute (dpm) or alternatively, referred to as counts per minute (cpm).
Where dpm=disintegrations per minute, cmpd=signal in assay well, and min and max are the respective minimum and maximum signal controls.
Where top and bottom are the normally allowed to float, but may be fixed at 100 or 0 respectively in a 3-parameter fit. The Hill Coefficient normally allowed to float but may also be fixed at 1 in a 3-parameter fit. Y is the % inhibition and X is the compound concentration.

Structure (SMILES)	IC50
CCCc1ccc(-c2n[nH]cc2CN(C)CCNC)cc1 [Compound 20]	278 nM
CNCCN(C)Cc1c[nH]nc1-c1cccc([N+](=O)[O-])c1 [Compound 21]	2090 nM
CNCCN(C)Cc1c[nH]nc1-c1cccc(O)c1 [Compound 26]	2340 nM
CNCCN(C)Cc1c[nH]nc1-c1ccc(O)cc1 [Compound 27]	1710 nM
CNCCN(C)Cc1c[nH]nc1-c1ccc(C)cc1C [Compound 29]	6300 nM
CNCCN(C)Cc1cn(CCCC(O)CO)nc1-c1ccc(F)cc1 (stereo not shown) [Compound 30]	3680 nM
CNCCN(C)Cc1cnn(CCCC(O)CO)c1-c1ccc(F)cc1 (stereo not shown) [Compound 31]	1840 nM
CNCCN(C)Cc1c[nH]nc1-c1ccc(N)cc1 [Compound 33]	1380 nM
CCNC(=O)c1cccc(-c2n[nH]cc2CN(C)CCNC)c1 [Compound 43]	4960 nM
CNCCN(C)Cc1c[nH]nc1-c1ccc(C(=O)c2ccccc2)cc1 [Compound 45]	42.9 nM
CNCCN(C)Cc1c[nH]nc1-c1ccc(F)cc1F [Compound 49]	5040 nM
CNCCN(C)Cc1c[nH]nc1-c1cc(F)ccc1F [Compound 50]	4320 nM
CNCCN(C)Cc1c[nH]nc1-c1ccc(F)c(F)c1 [Compound 51]	625 nM
CNCCN(C)Cc1c[nH]nc1-c1ccc(OC)c(F)c1 [Compound 52]	1500 nM
CNCCN(C)Cc1c[nH]nc1-c1ccc(OC)cc1OC [Compound 55]	4200 nM
CNCCN(C)Cc1c[nH]nc1-c1cccc2ccccc12 [Compound 57]	1310 nM
CNCCN(C)Cc1c[nH]nc1-c1ccc2ccccc2c1 [Compound 58]	582 nM
CN(CCN)Cc1cn(CCO)nc1-c1ccc(F)cc1 [Compound 66]	3790 nM
CNCCN(C)Cc1cn(Cc2cccnc2)nc1-c1ccc(OC(C)C)cc1 [Compound 246]	2430 nM
CNCCN(C)Cc1cnn(CC(=O)OC)c1-c1ccc(OC(C)C)cc1 [Compound 249]	9630 nM
CNCCN(C)Cc1cn(CC(N)=O)nc1-c1ccc(OC(C)C)cc1 [Compound 251]	2980 nM
CCn1ncc(CN(C)CCNC)c1-c1ccc(OC(C)C)cc1 [Compound 252]	531 nM
CNCCN(C)Cc1cn(CCOC)nc1-c1ccc(OC(C)C)cc1 [Compound 253, N1-((3-(4-isopropoxyphenyl)-1-(2-methoxyethyl)-1H-pyrazol-4-yl)methyl)-N1,N2-dimethylethane-1,2-diamine hydrochloride]	2260 nM
CNCCN(C)Cc1cn(C2CCC2)nc1-c1ccc(OC(C)C)cc1 [Compound 254, N1-((1-cyclobutyl-3-(4-isopropoxyphenyl)-1H-pyrazol-4-yl)methyl)-N1,N2-dimethylethane-1,2-diamine hydrochloride]	413 nM
CNCCN(C)Cc1cnn(C2CCCC2)c1-c1ccc(OC(C)C)cc1 [Compound 255]	1170 nM
CNCCN(C)Cc1cn(C2CCCCC2)nc1-c1ccc(OC(C)C)cc1 [Compound 256]	571 nM
C=CC(=O)Nc1cccc(-c2[nH]ncc2CN(C)CCNC)c1 [Compound 258]	1700 nM

Results, then the compound that gave them:

IC50	Structure (SMILES)
1370 nM	CNCCN(C)Cc1c[nH]nc1-c1cccc(C#N)c1 [Compound 22]
1760 nM	CNCCN(C)Cc1c[nH]nc1-c1ccccc1OC [Compound 23]
1210 nM	CNCCN(C)Cc1c[nH]nc1-c1cccc(OC)c1 [Compound 24]
1560 nM	CNCCN(C)Cc1c[nH]nc1-c1ccc(OC)cc1 [Compound 25]
337 nM	CNCCN(C)Cc1c[nH]nc1-c1ccc(CO)cc1 [Compound 28]
15.2 nM	CNCCN(C)Cc1c[nH]nc1-c1ccc(Oc2ccccc2)cc1 [Compound 37]
4590 nM	CNCCN(C)Cc1cn(CCC(O)CO)nc1-c1ccc(F)cc1 (stereo not shown) [Compound 59]
672 nM	CCN(CCN)Cc1c[nH]nc1-c1ccc(F)cc1 [Compound 62]
8930 nM	CN(CCN)Cc1cnn(CCO)c1-c1ccc(F)cc1 [Compound 65]
802 nM	CN(CCN)Cc1c[nH]nc1-c1ccc(C#N)cc1 [Compound 68]
301 nM	CNCCN(C)Cc1cn(C)nc1-c1ccc(OC(C)C)cc1 [Compound 243, N^1-((3-(4-isopropoxyphenyl)-1-methyl-1H-pyrazol-4-yl)methyl)-N1,N2-dimethylethane-1,2-diamine]
2820 nM	CNCCN(C)Cc1cn(Cc2ccccn2)nc1-c1ccc(OC(C)C)cc1 [Compound 247]
3750 nM	CNCCN(C)Cc1cn(CC(=O)OC)nc1-c1ccc(OC(C)C)cc1 [Compound 248]

— US9776972B2, “Pyrazole derivatives as arginine methyltransferase inhibitors and uses thereof” (priority 2013, dated 2017)
